Measured values: patent US20260223861A1, “NATURAL PESTICIDAL COMPOSITIONS AND METHODS OF CONTROLLING ARTHROPODS” (TERRAMERA, INC., priority 2023, published 2026)
“And” between values parts separate entries of the source, which are not always exact repeats. Equal values may be shown once.

Tested on: German cockroaches
Assay: Spraying compositions on German cockroaches, knock-down and mortality (dead incl. moribund) observed
Assay type: in vivo
Conditions: knocked-down and dead insects, concentrations w/w in water
Protocol: In the following in vitro examples, various compounds were combined and the resulting composition was tested for efficacy. Each composition was mixed using a magnetic stir bar at room temperature (21° C.), except as otherwise noted herein. […] Water-insoluble and/or -immiscible ingredients, such as wintergreen oil, geraniol, oleic acid, and Na oleate, were dissolved and mixed as a separate fraction (the water-insoluble fraction). The water-insoluble fraction was then mixed with the water-soluble fraction by gentle stirring. All tested compositions comprised the tested compounds in solution with water. Each composition was tested for efficacy by spraying the composition on German cockroaches and observing the number of knocked-down and dead (including moribund) insects twice, once at 5 minutes after spraying and once at 48 hours after spraying. Either such measure of knock-down and mortality can be important in certain contexts. For example, 5-minute knock-down and mortality can be important in consumer contexts, as efficacy is often assessed over a short interval in such contexts. Shorter intervals, such as 30 seconds or 1 minute, are also or alternatively sometimes used in such contexts. As another example, 48-hour knock-down and mortality can be important in agricultural or industrial contexts, as total reduction in pest pressure may be more readily assessed over longer periods in such contexts. […] Ingredients were also tested for efficacy on their own (in dilution in water to provide the same concentration of the ingredient as in the tested compositions) using the same testing procedure. An expected efficacy for each formulation was determined based on the ingredients' individual tested efficacies based on the Colby equation, as described in greater detail by Ferry, Nancy; Stanley, Bruce H.; and Armel, Gregory (2005). “DESIGN AND […] OF BIOLOGICAL ASSAYS OF MIXTURES,” Conference on Applied Statistics in Agriculture. https://doi.org/10.4148/2475-7772.1133. Compositions with efficacy greater than this expected efficacy were determined to show synergistic efficacy.

[1] = 5 minutes after spraying, sulfate
[2] = 48 hours after spraying, sulfate

CCCCOC(=O)C(C)O (stereo not shown) [Butyl Lactate (5%), Butyl lactate]
Observed Efficacy (5 minutes after spraying): 13% | Observed Efficacy (48 hours after spraying): 13%

CCCCCCCC/C=C\CCCCCCCC(=O)O [Oleic Acid (20%), Oleic acid]
Observed Efficacy (5 minutes after spraying): 5% and 0% | Observed Efficacy (48 hours after spraying): 5% and 0%

CC(C)O [Isopropyl alcohol (10%), Isopropyl alcohol]
Observed Efficacy (5 minutes after spraying): 0% | Observed Efficacy (48 hours after spraying): 0%

CC(C)=CCC/C(C)=C/CO [Geraniol (10%), Geraniol]
Observed Efficacy (5 minutes after spraying): 27% | Observed Efficacy (48 hours after spraying): 27%

CCCCCCCCCCCCOS(=O)(=O)[O-].[Na+] [Sodium Lauryl Sulfate (1.25%), Sodium lauryl sulfate]
Observed Efficacy [1]: 0% | Observed Efficacy [2]: 0%

CCCCOC(=O)C(C)O (stereo not shown) [Butyl Lactate (10%), Butyl lactate]
Observed Efficacy (5 minutes after spraying): 7% | Observed Efficacy (48 hours after spraying): 7%

CCCCCCCCCCCCOS(=O)(=O)[O-].[Na+] [Sodium Lauryl Sulfate (5%), Sodium lauryl sulfate]
Observed Efficacy (5 minutes after spraying, listed as Sodium lauryl sulfate (5%), sulfate): 7% | Observed Efficacy [1]: 7% | Observed Efficacy (48 hours after spraying, listed as Sodium lauryl sulfate (5%), sulfate): 7% | Observed Efficacy [2]: 7%

CC(C)=CCC/C(C)=C/CO [Geraniol (5%), Geraniol]
Observed Efficacy (5 minutes after spraying): 7% | Observed Efficacy (48 hours after spraying): 7%

CC(C)=CCC/C(C)=C/CO [Geraniol (2.5%), Geraniol]
Observed Efficacy (5 minutes after spraying): 20% | Observed Efficacy (48 hours after spraying): 20%

[Cl-].[Na+] [NaCl (2.5%), NaCl]
Observed Efficacy (5 minutes after spraying): 0% | Observed Efficacy (48 hours after spraying): 0%

CCCCOC(=O)C(C)O (stereo not shown) [Butyl Lactate (2.5%), Butyl lactate]
Observed Efficacy (5 minutes after spraying): 0% | Observed Efficacy (48 hours after spraying): 0%

CCCCCCCCCCCCOS(=O)(=O)[O-].[Na+] [Sodium Lauryl Sulfate (10%), Sodium lauryl sulfate]
Observed Efficacy (5 minutes after spraying, listed as Sodium lauryl sulfate (10%), sulfate): 0% | Observed Efficacy [1]: 0% | Observed Efficacy (48 hours after spraying, listed as Sodium lauryl sulfate (10%), sulfate): 0% | Observed Efficacy [2]: 0%

CCCCCCCC/C=C\CCCCCCCC(=O)O [Oleic Acid (5%), Oleic acid]
Observed Efficacy (5 minutes after spraying): 0% | Observed Efficacy (48 hours after spraying): 0%

CCCCCCCC/C=C\CCCCCCCC(=O)OCC(O)CO (stereo not shown) [Glycerol Monooleate (1.25%), Glycerol monooleate]
Observed Efficacy (5 minutes after spraying): 0% | Observed Efficacy (48 hours after spraying): 0%

CCCCCCCCCCCCOS(=O)(=O)[O-].[Na+] [Sodium Lauryl Sulfate (2.5%), Sodium lauryl sulfate]
Observed Efficacy [1]: 0% | Observed Efficacy [2]: 0%

CC(C)O [Isopropyl alcohol (5%), Isopropyl alcohol]
Observed Efficacy (5 minutes after spraying): 0% | Observed Efficacy (48 hours after spraying): 0%

CC(C)=CCC/C(C)=C/CO [Geraniol (20%), Geraniol]
Observed Efficacy (5 minutes after spraying): 5% | Observed Efficacy (48 hours after spraying): 5%

CCCCOC(=O)C(C)O (stereo not shown) [Butyl Lactate (20%), Butyl lactate]
Observed Efficacy (5 minutes after spraying): 13% | Observed Efficacy (48 hours after spraying): 13%
